Like-named read-outs stand apart in the source and are kept apart here.
Key:
Tyk2 kinase domain (DH1) = Tyk2 kinase domain (DH1) (Homo sapiens (Human), UniProt P29597); assay: Tyk2 Radioactive Kinase Assay; type: biochemical; settings: for inhibition at 10 µM: read-out: Tyk2 JH1% Inhibition @ 10 μM
Description: (§1) The Tyk2 and JAK2 radioactive kinase assay measures the percent inhibition at the Tyk2 kinase domain (DH1) and the percent inhibition at the JAK2 kinase domain (JH1). Results of the assay are expressed as percent inhibition at 10 μM.

[1] = biological target: human TYK2 (JH2domain-pseudokinase) (Homo sapiens (Human), UniProt P29597); assay: TYK2 JH2 Domain Binding Assay (KINOMEscan)
human TYK2 (JH2domain-pseudokinase), sequence (P29597 556-888): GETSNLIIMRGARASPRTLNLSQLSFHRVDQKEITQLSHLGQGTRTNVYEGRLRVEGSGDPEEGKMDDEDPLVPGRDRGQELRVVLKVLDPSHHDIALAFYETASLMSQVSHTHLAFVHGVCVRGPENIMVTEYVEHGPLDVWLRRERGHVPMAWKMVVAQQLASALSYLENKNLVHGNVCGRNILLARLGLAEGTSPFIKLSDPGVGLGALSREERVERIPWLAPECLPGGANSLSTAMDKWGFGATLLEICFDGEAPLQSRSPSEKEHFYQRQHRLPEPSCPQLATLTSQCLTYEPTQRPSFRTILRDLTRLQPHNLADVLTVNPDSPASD
Summary of the method: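 Pseudokinase domain binding was measured by qPCR of tagged, bead-retained kinase after 1 h room-temperature competition, with 0.9% DMSO and compound up to 30,000 nM in 3-fold steps. Hill-equation Kd, duplicate.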

JAK2 kinase domain (JH1) = JAK2 kinase domain (JH1) (Homo sapiens (Human), UniProt O60674); assay: JAK2 Radioactive Kinase Assay; type: biochemical; settings: for inhibition at 10 µM: read-out: JAK2 JH1% Inhibition @ 10 μM
JAK2 kinase domain (JH1), sequence (O60674 849-1124): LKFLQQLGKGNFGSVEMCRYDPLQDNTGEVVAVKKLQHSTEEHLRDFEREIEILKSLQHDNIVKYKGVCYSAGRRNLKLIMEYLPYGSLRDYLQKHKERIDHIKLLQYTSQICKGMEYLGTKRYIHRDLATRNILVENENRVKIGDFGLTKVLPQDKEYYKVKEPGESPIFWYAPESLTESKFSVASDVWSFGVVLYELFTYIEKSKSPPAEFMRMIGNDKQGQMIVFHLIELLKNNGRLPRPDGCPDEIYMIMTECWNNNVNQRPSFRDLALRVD
Description: as §1

Tyk2 kinase domain (DH1), sequence (P29597 897-1176): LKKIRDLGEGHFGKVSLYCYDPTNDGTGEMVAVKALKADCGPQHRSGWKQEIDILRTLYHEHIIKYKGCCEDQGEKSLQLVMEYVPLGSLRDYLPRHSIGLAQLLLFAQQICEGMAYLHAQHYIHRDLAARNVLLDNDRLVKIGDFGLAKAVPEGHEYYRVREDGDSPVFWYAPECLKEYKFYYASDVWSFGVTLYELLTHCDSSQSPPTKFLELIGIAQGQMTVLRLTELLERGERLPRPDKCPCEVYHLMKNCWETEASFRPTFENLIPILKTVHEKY

| Structure (SMILES) | inhibition at 10 µM (Tyk2 kinase domain (DH1); compound at 10 μM, ATP 10 μM) [%] | Kd [1] [nM] | inhibition at 10 µM (JAK2 kinase domain (JH1); compound at 10 μM, ATP 10 μM) [%] | inhibition at 10 µM (Tyk2 kinase domain (DH1); 10 μM compound, 10 μM ATP) [%] | inhibition at 10 µM (JAK2 kinase domain (JH1); 10 μM compound, 10 μM ATP) [%] | also measured |
| --- | --- | --- | --- | --- | --- | --- |
| CNc1cc(Nc2cccnc2OC)nc2c(C(=O)NCCC3(O)CC3)cnn12 [I-468, N-(2-(1-hydroxycyclopropyl)ethyl)-5-((2-methoxypyridin-3-yl)amino)-7-(methylamino)pyrazolo[1,5-a]pyrimidine-3-carboxamide] | < 50 | 0.2 to 1 | < 50 | – | – | – |
| NC(=O)c1cnn2c(N)cc(Nc3cccc(N4CCCC4)c3Cl)nc12 [I-23] | < 50 | 1 to 10 | 70 to 90 | – | – | – |
| NC(=O)c1cnn2c(N)cc(Nc3cc(N4CCCC4)nc(C(F)(F)F)c3)nc12 [I-120] | < 50 | 1 to 10 | < 50 | – | – | – |
| CNc1cc(Nc2cccnc2OC)nc2c(C(=O)N[C@H]3CC[C@H](O)C3)cnn12 [I-487] | – | < 0.2 | – | – | – | Tyk2 JH1% Inhibition @ 10 μM (Tyk2 kinase domain (DH1); compound at 10 μM, ATP 10 μM): A (percent inhibition at 10 μM lower than 50); JAK2 JH1% Inhibition @ 10 μM (JAK2 kinase domain (JH1); compound at 10 μM, ATP 10 μM): A (percent inhibition at 10 μM lower than 50) |
| CNc1cc(Nc2cccn([C@@H]3CCCC[C@@H]3OC)c2=O)nc2c(C(=O)NC3CC3)cnn12 [I-989] | – | > 10 | – | < 50 | < 50 | – |
| CNc1cc(Nc2cccn([C@@H]3CCC[C@@H]3O)c2=O)nc2c(C(=O)N[C@@H]3C[C@@H]3F)cnn12 [I-966] | – | 0.2 to 1 | – | < 50 | < 50 | – |
| CNc1cc(-c2cn(C3CCOCC3)c3ncccc23)nc2c(C(=O)N[C@H]3CC[C@@H]3OC)cnn12 [I-1065] | – | < 0.2 | – | < 50 | < 50 | – |
| CNc1cc(Nc2cccn3cnnc23)nc2c(C(=O)N[C@@H]3CC[C@@H]3O)cnn12 [I-662] | < 50 | < 0.2 | < 50 | – | – | – |
| CNc1cc(-c2cn(CCN3CCCCC3)c3ncccc23)nc2c(C(=O)NC3CC3)cnn12 [I-584, N-cyclopropyl-7-(methylamino)-5-(1-(2-(piperidin-1-yl)ethyl)-1H-pyrrolo[2,3-b]pyridin-3-yl)pyrazolo[1,5-a]pyrimidine-3-carboxamide] | < 50 | < 0.2 | < 50 | – | – | – |
| CNc1cc(Nc2cc(Cl)cnc2OC(C)C)nc2c(C(=O)NC3CCC3)cnn12 [I-149] | < 50 | 1 to 10 | < 50 | – | – | – |
| CNc1cc(Nc2cccn(-c3ccn(C)n3)c2=O)nc2c(C(=O)N[C@H]3C[C@H]3F)cnn12 [I-140] | < 50 | < 0.2 | < 50 | – | – | – |
| CNc1cc(Nc2cccnc2OC)nc2c(C(=O)N[C@H]3CC[C@@]3(C)O)cnn12 [I-1015, N-((1S,2R)-2-hydroxy-2-methylcyclobutyl)-5-((2-methoxypyridin-3-yl)amino)-7-(methylamino)pyrazolo[1,5-a]pyrimidine-3-carboxamide] | – | 1 to 10 | – | < 50 | < 50 | – |
| CNc1cc(Nc2cccn([C@@H]3CC[C@@H]3O)c2=O)nc2c(C(=O)NC3CC3)cnn12 [I-1104] | – | < 0.2 | – | < 50 | < 50 | – |
| CNc1cc(Nc2cccn(-c3cccnc3C)c2=O)nc2c(C(=O)NC3CC3)cnn12 [I-812] | – | 1 to 10 | – | < 50 | < 50 | – |
| CNc1cc(Nc2cccn(-c3ccccn3)c2=O)nc2c(C(=O)N[C@@H]3CC[C@@H]3O)cnn12 [I-806] | – | 0.2 to 1 | – | – | – | Tyk2 JH1% Inhibition @ 10 μM (Tyk2 kinase domain (DH1); compound at 10 μM, ATP 10 μM): A (percent inhibition at 10 μM lower than 50); JAK2 JH1% Inhibition @ 10 μM (JAK2 kinase domain (JH1); compound at 10 μM, ATP 10 μM): A (percent inhibition at 10 μM lower than 50) |
| CCOc1ccc(-n2cccc(Nc3cc(NC)n4ncc(C(N)=O)c4n3)c2=O)nn1 [I-19] | < 50 | 1 to 10 | < 50 | – | – | – |
| CNc1cc(Nc2cccn([C@H]3CCCOC3)c2=O)nc2c(C(=O)N[C@H]3CC[C@H](O)C3)cnn12 [I-728] | – | < 0.2 | – | – | – | Tyk2 JH1% Inhibition @ 10 μM (Tyk2 kinase domain (DH1); compound at 10 μM, ATP 10 μM): A (percent inhibition at 10 μM lower than 50); JAK2 JH1% Inhibition @ 10 μM (JAK2 kinase domain (JH1); compound at 10 μM, ATP 10 μM): A (percent inhibition at 10 μM lower than 50) |
| CNc1cc(Nc2cccn(C3CCN(C)CC3)c2=O)nc2c(C(=O)N[C@H]3CC[C@H]3O)cnn12 [I-689] | < 50 | 0.2 to 1 | < 50 | – | – | – |
| CNc1cc(-c2cn(CCN3CCOCC3)c3ncccc23)nc2c(C(N)=O)cnn12 [I-796, 7-(methylamino)-5-(1-(2-morpholinoethyl)-1H-pyrrolo[2,3-b]pyridin-3-yl)pyrazolo[1,5-a]pyrimidine-3-carboxamide] | < 50 | < 0.2 | < 50 | – | – | – |

| Structure (SMILES) | inhibition at 10 µM (Tyk2 kinase domain (DH1); compound at 10 μM, ATP 10 μM) [%] | Kd [1] [nM] | inhibition at 10 µM (JAK2 kinase domain (JH1); compound at 10 μM, ATP 10 μM) [%] | inhibition at 10 µM (Tyk2 kinase domain (DH1); 10 μM compound, 10 μM ATP) [%] | inhibition at 10 µM (JAK2 kinase domain (JH1); 10 μM compound, 10 μM ATP) [%] | also measured |
| --- | --- | --- | --- | --- | --- | --- |
| CNc1cc(Nc2cccn(-c3ncc(OC)cc3F)c2=O)nc2c(C(=O)NC3CC3)cnn12 [I-672] | < 50 | < 0.2 | < 50 | – | – | – |
| CNc1cc(Nc2cccn([C@@H]3CC[C@H]3OC)c2=O)nc2c(C(=O)NC3CC3)cnn12 [I-1020] | – | 0.2 to 1 | – | < 50 | < 50 | – |
| CNc1cc(Nc2cccn(-c3cccc(C)n3)c2=O)nc2c(C(=O)NC3CC3)cnn12 [I-237] | < 50 | < 0.2 | < 50 | – | – | – |
| CNc1cc(-c2cn(CCN3CCCCC3)c3ncccc23)nc2c(C(N)=O)cnn12 [I-797] | < 50 | < 0.2 | < 50 | – | – | – |
| CNC(=O)c1nscc1Nc1cc(NC)n2ncc(C(=O)NC3CC3)c2n1 [I-913] | – | 0.2 to 1 | – | < 50 | < 50 | – |
| CNc1cc(-c2cn(CCN3CCN(C)CC3)c3ncccc23)nc2c(C(=O)N[C@H]3CC[C@H]3O)cnn12 [I-906, N-((1S,2R)-2-hydroxycyclobutyl)-7-(methylamino)-5-(1-(2-(4-methylpiperazin-1-yl)ethyl)-1H-pyrrolo[2,3-b]pyridin-3-yl)pyrazolo[1,5-a]pyrimidine-3-carboxamide] | – | – | – | – | – | Tyk2 JH1% Inhibition @ 10 μM (Tyk2 kinase domain (DH1); 10 μM compound, 10 μM ATP): A (percent inhibition at 10 μM lower than 50); JAK2 JH1% Inhibition @ 10 μM (JAK2 kinase domain (JH1); 10 μM compound, 10 μM ATP): A (percent inhibition at 10 μM lower than 50) |
| CNc1cc(-c2cn(CCN3CCN(C)CC3)c3ncccc23)nc2c(C(=O)N[C@H]3CC[C@@H]3O)cnn12 [I-920, N-((1S,2S)-2-hydroxycyclobutyl)-7-(methylamino)-5-(1-(2-(4-methylpiperazin-1-yl)ethyl)-1H-pyrrolo[2,3-b]pyridin-3-yl)pyrazolo[1,5-a]pyrimidine-3-carboxamide] | – | – | – | – | – | Tyk2 JH1% Inhibition @ 10 μM (Tyk2 kinase domain (DH1); 10 μM compound, 10 μM ATP): A (percent inhibition at 10 μM lower than 50); JAK2 JH1% Inhibition @ 10 μM (JAK2 kinase domain (JH1); 10 μM compound, 10 μM ATP): A (percent inhibition at 10 μM lower than 50) |
| CNc1cc(Nc2cccn([C@H]3C[C@@H]3F)c2=O)nc2c(C(=O)NCC3(CO)CC3)cnn12 [I-1121, 5-((1-((1S,2S)-2-fluorocyclopropyl)-2-oxo-1,2-dihydropyridin-3-yl)amino)-N-((1-(hydroxymethyl)cyclopropyl)methyl)-7-(methylamino)pyrazolo[1,5-a]pyrimidine-3-carboxamide] | – | – | – | – | – | Tyk2 JH1% Inhibition @ 10 μM (Tyk2 kinase domain (DH1); 10 μM compound, 10 μM ATP): A (percent inhibition at 10 μM lower than 50); JAK2 JH1% Inhibition @ 10 μM (JAK2 kinase domain (JH1); 10 μM compound, 10 μM ATP): A (percent inhibition at 10 μM lower than 50) |
| CNc1cc(Nc2cccn([C@H]3CCCOC3)c2=O)nc2c(C(=O)N[C@H]3CC[C@H]3O)cnn12 [I-803] | – | – | – | – | – | Tyk2 JH1% Inhibition @ 10 μM (Tyk2 kinase domain (DH1); compound at 10 μM, ATP 10 μM): A (percent inhibition at 10 μM lower than 50); JAK2 JH1% Inhibition @ 10 μM (JAK2 kinase domain (JH1); compound at 10 μM, ATP 10 μM): A (percent inhibition at 10 μM lower than 50) |
| CNc1cc(Nc2cccn([C@H]3CCC[C@@H](OC)C3)c2=O)nc2c(C(=O)N[C@@H]3C[C@@H]3F)cnn12 [I-839] | – | – | – | < 50 | < 50 | – |
| CNc1cc(Nc2cccn([C@@H]3CC[C@H]3O)c2=O)nc2c(C(=O)NC3CC3)cnn12 [I-802] | – | – | – | – | – | Tyk2 JH1% Inhibition @ 10 μM (Tyk2 kinase domain (DH1); compound at 10 μM, ATP 10 μM): A (percent inhibition at 10 μM lower than 50); JAK2 JH1% Inhibition @ 10 μM (JAK2 kinase domain (JH1); compound at 10 μM, ATP 10 μM): A (percent inhibition at 10 μM lower than 50) |
| CNc1cc(Nc2cccc(N3CCO[C@@]4(CCOC4)C3)n2)nc2c(C(=O)NC3CC3)cnn12 [I-828] | – | – | – | < 50 | < 50 | – |
| CNc1cc(Nc2cccn([C@H]3CCC[C@H](OC)C3)c2=O)nc2c(C(=O)NCC3(CO)CC3)cnn12 [I-1086] | – | – | – | – | – | Tyk2 JH1% Inhibition @ 10 μM (Tyk2 kinase domain (DH1); 10 μM compound, 10 μM ATP): A (percent inhibition at 10 μM lower than 50); JAK2 JH1% Inhibition @ 10 μM (JAK2 kinase domain (JH1); 10 μM compound, 10 μM ATP): A (percent inhibition at 10 μM lower than 50) |
| CNc1cc(Nc2cc(Cl)cn(C3CCOCC3)c2=O)nc2c(C(=O)N[C@H]3CC[C@@H]3O)cnn12 [I-826] | – | – | – | < 50 | < 50 | – |
| CNc1cc(Nc2cccn([C@H]3CC[C@@H]3OC)c2=O)nc2c(C(=O)N[C@@H]3C[C@@H]3F)cnn12 [I-1021] | – | – | – | < 50 | < 50 | – |
| CNc1cc(Nc2cccn([C@@H]3C[C@H]3F)c2=O)nc2c(C(=O)NC3CC3)cnn12 [I-866] | – | – | – | < 50 | < 50 | – |
| CNc1cc(Nc2cccnc2OC2CC2)nc2c(C(=O)N[C@H]3CC[C@H](O)C3)cnn12 [I-489, 5-((2-cyclopropoxypyridin-3-yl)amino)-N-((1S,3S)-3-hydroxycyclopentyl)-7-(methylamino)pyrazolo[1,5-a]pyrimidine-3-carboxamide] | – | – | – | – | – | Tyk2 JH1% Inhibition @ 10 μM (Tyk2 kinase domain (DH1); compound at 10 μM, ATP 10 μM): A (percent inhibition at 10 μM lower than 50); JAK2 JH1% Inhibition @ 10 μM (JAK2 kinase domain (JH1); compound at 10 μM, ATP 10 μM): A (percent inhibition at 10 μM lower than 50) |
| CNc1cc(Nc2cccn([C@H]3CCN(C)C[C@@H]3F)c2=O)nc2c(C(=O)NC3CC3)cnn12 [I-685] | – | – | – | – | – | Tyk2 JH1% Inhibition @ 10 μM (Tyk2 kinase domain (DH1); compound at 10 μM, ATP 10 μM): A (percent inhibition at 10 μM lower than 50); JAK2 JH1% Inhibition @ 10 μM (JAK2 kinase domain (JH1); compound at 10 μM, ATP 10 μM): A (percent inhibition at 10 μM lower than 50) |
